Laboratory results published in patent publication US8974815B2, “Fibrous membrane for biomedical application based on poly(ester-amide)s” (Cornell University, priority 2005, dated 2015).

Experiments:
[1] = In vitro release of 4-amino-TEMPO in PBS medium (ESR); format: physicochemical
Description: (§1) The in vitro release of 4-amino-TEMPO nitroxyl radicals from electrospun PEA fibers was investigated by immersing ˜300 mg 8-Phe-4 electrospun nano fibrous mat into a glass vial filled with 5 mL of 0.1M phosphate buffer solution of pH=7.42. The 8-Phe-4 nano fibrous mat was pre-loaded with 4-amino-TEMPO at a 10.0 mg 4-amino-TEMPO per g 8-Phe-4 and electrospun from a 39% wt/vol 8-Phe-4 solution in the mixture solvent of chloroform and DMF at volume ratio of 2 to 1. The glass vial was then placed in a water bath shaker maintained at 37° C. and 100 cycles/min. 10 μl of supernant of the vial was taken at a determined time and the amount of 4-amino-TEMPO nitroxyl radicals was measured by electron spin resonance (ESR) as a function of incubation time.
(§2) Three samples were taken for each measurement and the average results were reported. The ESR spectra at X-band were obtained from a Bruker 200D SRC spectrometer operating at 9.6 GHz, using 100 KHz modulation. The ESR signal intensity which is proportional to the mass of 4-amino-TEMPO nitroxyl free radical was obtained by a double integration of the recorded first derivative signals. A linear correlation (γ^2=0.9996) between the ESR signal intensity and the mass of nitroxyl radical ranging from 1.67 μg to 0.05 μg was obtained. The actual amount of 4-amino-TEMPO nitroxyl radicals loaded into the electrospun fibers was also determined by a complete dissolution of 8-Phe-4/4-amino-TEMPO electrospun fibrous membranes in DMF and the actual pre-loaded 4-amino-TEMPO amount within 8-Phe-4 fibers was calculated from the established calibration curve. The nitroxyl radicals released was measured in triplicates and expressed in the percentage of the initial pre-loaded amounts in the 8-Phe-4 fibers.

α-chymotrypsin = α-chymotrypsin (Bos taurus, UniProt P00766); assay: In vitro release of 4-amino-TEMPO in α-chymotrypsin solution (ESR); format: in vitro ADME
Description: as §1, §2
4-amino-TEMPO was physically pre-loaded into the 640 nm 8-Phe-4 electrospun fibers at a loading level of 10.0 mg TEMPO per gram of 8-Phe-4. Since 4-amino-TEMPO is a free radical, the actual amounts of 4-amino-TEMPO loaded into the 8-Phe-4 electrospun nanofibers and its subsequently release from the fibers in either PBS buffer or a α-chymotrypsin solution (0.1 mg/mL α-chymotrypsin) were quantified by ESR.

[2] = Gallium nitrate release from 8P4 fabric (conductivity); format: physicochemical; settings: from 8P4 fabric at 1.2, 1.0 and 0.2 g gallium nitrate per g 8P4; water extraction
Description: In order to determine release profiles of gallium nitrate from the fabric, a calibration curve was prepared as follows: Solutions of known concentrations of gallium nitrate in chloroform (not completely dissolved) were extracted with 10-mL deionized water. The electrical resistance of the aqueous solutions from extraction was measured. A calibration curve was constructed based on conductivity (inverse of measured resistance) and known concentration of gallium nitrate.
Drug release was established at 1, 2, 3, 4, 5, 8, 12, 18 and 28 days by extraction with water and measuring conductivity and generating gallium nitrate release profiles for 1.2 grams of gallium nitrate per gram (8P4), 1.0 gram of gallium nitrate per gram (8P4) and 0.2 am of gallium nitrate per gram (8P4). In each case there was a burst of drug release within the first 5 days.

SMILES: CC1(C)CC(N)CC(C)(C)N1[O] [4-amino-TEMPO, 4-amino-2,2,6,6-tetramethylpiperadine-1-oxy radical]
- slope of the initial linear part of the release profile ([1]; PBS medium alone, 37° C.): 2.0 %/day
- 4-amino-TEMPO still entrapped inside the 8-Phe-4 matrix ([1]; after one month in PBS): more than 60%
- initial burst release, of total loaded nitroxyl radical ([1]; first day, from 640 nm 8-Phe-4 nanofibers, pH 7.42 PBS, 37° C.): about 14%
- residual nitroxyl radical in dissolved incubated membrane, of initial loading level ([1]; one-month incubated membrane dissolved in DMF, ESR): about 58%
- release slope in α-chymotrypsin relative to PBS alone (α-chymotrypsin): more than 35 times
- slope of the initial linear part of the release profile (α-chymotrypsin; 0.1 mg/mL α-chymotrypsin solution, 37° C.): 72 %/day
- incorporated TEMPO released (α-chymotrypsin; within the 1st hr, α-chymotrypsin solution): more than 23%
- time to complete release (α-chymotrypsin; α-chymotrypsin solution): ≤ 120 h

SMILES: O=[N+]([O-])[O-].O=[N+]([O-])[O-].O=[N+]([O-])[O-].[Ga+3] [gallium nitrate, Gallium (III) nitrate hydrate]
- period of burst of drug release [2]: ≤ 5 days
